Measured values as given in ChEMBL document CHEMBL3585260, “2-Aminoalkyl nicotinamide derivatives as pure inverse agonists of the ghrelin receptor” (Bioorg Med Chem Lett, 2015).
The source made the active and inactive calls. No cut-off for these calls is given here.

Legend:
[1] = biological target: T1, Growth hormone secretagogue receptor type 1 (Rattus norvegicus, UniProt O08725); assay: Inverse agonist activity at rat ghrelin receptor expressed in HEK293 cells by NFAT-RE-luciferase reporter gene assay; type: cell-based
T1 sequence (O08725 whole entry): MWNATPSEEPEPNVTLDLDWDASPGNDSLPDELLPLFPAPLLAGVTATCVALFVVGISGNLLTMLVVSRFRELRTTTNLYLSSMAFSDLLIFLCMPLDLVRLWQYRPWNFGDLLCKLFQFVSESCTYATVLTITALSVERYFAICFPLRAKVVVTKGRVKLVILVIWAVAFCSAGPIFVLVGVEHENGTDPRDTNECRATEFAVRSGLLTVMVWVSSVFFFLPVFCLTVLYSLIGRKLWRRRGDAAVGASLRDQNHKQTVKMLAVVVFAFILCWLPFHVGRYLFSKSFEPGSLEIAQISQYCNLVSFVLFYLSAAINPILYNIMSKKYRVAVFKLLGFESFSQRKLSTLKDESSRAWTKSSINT

[2] = biological target: Neurotensin receptor type 2 (Homo sapiens) (UniProt O95665); assay: Inverse agonist activity at NTSR2 (unknown origin) expressed in HEK293 cells assessed as suppression of constitutive receptor activity by NFAT-RE-luciferase reporter gene assay; type: cell-based
Chain of Neurotensin receptor type 2 (Homo sapiens) (O95665 whole entry): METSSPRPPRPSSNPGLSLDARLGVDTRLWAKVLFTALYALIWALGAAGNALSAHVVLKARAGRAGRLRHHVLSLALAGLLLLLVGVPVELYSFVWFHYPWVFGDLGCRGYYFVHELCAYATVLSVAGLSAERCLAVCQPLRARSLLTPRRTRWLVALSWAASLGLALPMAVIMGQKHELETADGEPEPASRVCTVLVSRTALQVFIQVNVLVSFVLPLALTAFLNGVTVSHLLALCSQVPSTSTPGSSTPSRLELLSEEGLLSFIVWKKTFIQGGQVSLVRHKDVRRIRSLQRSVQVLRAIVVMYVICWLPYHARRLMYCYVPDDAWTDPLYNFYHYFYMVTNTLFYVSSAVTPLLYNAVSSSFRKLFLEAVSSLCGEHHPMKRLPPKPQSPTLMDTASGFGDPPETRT

[3] = biological target: T2, Growth hormone secretagogue receptor type 1 (Homo sapiens, UniProt Q92847); assay: Binding affinity to ghrelin receptor (unknown origin)
T2 sequence (Q92847 whole entry): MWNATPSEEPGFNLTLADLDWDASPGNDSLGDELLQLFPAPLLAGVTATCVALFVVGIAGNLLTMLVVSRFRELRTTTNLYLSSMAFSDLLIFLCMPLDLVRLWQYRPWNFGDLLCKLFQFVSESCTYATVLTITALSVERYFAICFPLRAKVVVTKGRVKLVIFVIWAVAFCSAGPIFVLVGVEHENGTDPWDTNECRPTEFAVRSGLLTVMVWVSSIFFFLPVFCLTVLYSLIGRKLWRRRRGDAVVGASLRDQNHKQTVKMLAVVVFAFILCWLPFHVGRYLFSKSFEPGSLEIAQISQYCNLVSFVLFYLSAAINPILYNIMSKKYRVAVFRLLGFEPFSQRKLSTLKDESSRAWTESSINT

[4] = biological target: Growth hormone secretagogue receptor type 1 (Rattus norvegicus) (UniProt O08725); assay: Inverse agonist activity at rat ghrelin receptor expressed in HEK293 cells assessed as blockade of constitutive receptor activity b by NFAT-RE-luciferase reporter gene assay; type: cell-based
Chain of Growth hormone secretagogue receptor type 1 (Rattus norvegicus) (O08725 whole entry): as the sequence (O08725 whole entry) above

[5] = Toxicity against HEK293 cells assessed as cell viability at 2 uM by alamar blue staining method; type: cell-based; details: human, read-out: Activity
[6] = Toxicity against HEK293 cells assessed as cell viability at 50 uM by alamar blue staining method; type: cell-based; details: human, read-out: Activity
HEK293 [7] = assay: Toxicity against HEK293 cells assessed as cell viability at >10 uM by alamar blue staining method; type: cell-based; details: human
HEK293 [8] = assay: Toxicity against HEK293 cells assessed as cell viability up to 10 uM by alamar blue staining method; type: cell-based; details: human
[9] = biological target: T1, Growth hormone secretagogue receptor type 1; assay: Inverse agonist activity at rat ghrelin receptor expressed in HEK293 cells by inositol phosphate turnover assay; type: functional, cell-based
[10] = biological target: T1, Growth hormone secretagogue receptor type 1; assay: Inverse agonist activity at rat ghrelin receptor by inositol phosphate turnover assay; type: functional
Rattus norvegicus [11] = assay: Inhibition of ghrelin-induced gastric emptying in rat assessed as suppression of gastric motility at 10 mg/kg, sc pre-treated 15 mins before ghrelin challenge; type: functional, organism-based; details: Stomach
Rattus norvegicus [12] = assay: Inhibition of ghrelin-induced gastric emptying in rat assessed as suppression of gastric content at 10 mg/kg, sc pre-treated 15 mins before ghrelin challenge; type: functional, organism-based; details: Stomach
Rattus norvegicus [13] = assay: Inhibition of ghrelin-induced food intake in rat at 15 to 30 mg/kg, ip after 30 mins; type: functional, organism-based
Mus musculus [14] = assay: Inhibition of ghrelin-induced food intake in mouse model of high fat diet-induced obesity at 30 mg/kg, sc dosed twice daily for 14 days; type: functional, organism-based
Mus musculus [15] = assay: Inhibition of ghrelin-induced food intake in mouse model of high fat diet-induced obesity at 10 mg/kg, sc dosed twice daily for 14 days; type: functional, organism-based
Rattus norvegicus [16] = assay: Toxicity in rat assessed as induction of behavioral effect at 10 to 30 mg/kg, ip; type: organism-based; details: in vivo
Rattus norvegicus [17] = assay: Toxicity in rat assessed as induction of sedation at 10 to 30 mg/kg, ip; type: organism-based; details: in vivo
Mus musculus [18] = assay: Toxicity in mouse model of high fat diet-induced obesity assessed as induction of behavioral effect at 10 and 30 mg/kg, sc; type: organism-based; details: in vivo
Mus musculus [19] = assay: Toxicity in mouse model of high fat diet-induced obesity assessed as induction of sedation at 10 and 30 mg/kg, sc; type: organism-based; details: in vivo
[20] = biological target: Adrenergic receptor alpha-2 (Homo sapiens) (UniProt P08913+P18825+P18089); assay: Inhibition of radioligand binding at alpha-2 adrenergic receptor (unknown origin) at 10 uM
[21] = biological target: Cannabinoid receptor 1 (Homo sapiens) (UniProt P21554); assay: Inhibition of radioligand binding at human CB1 receptor at 10 uM
[22] = biological target: Cholecystokinin receptor type A (Homo sapiens) (UniProt P32238); assay: Inhibition of radioligand binding at human CCKA at 10 uM
Chain of Cholecystokinin receptor type A (Homo sapiens) (P32238 whole entry): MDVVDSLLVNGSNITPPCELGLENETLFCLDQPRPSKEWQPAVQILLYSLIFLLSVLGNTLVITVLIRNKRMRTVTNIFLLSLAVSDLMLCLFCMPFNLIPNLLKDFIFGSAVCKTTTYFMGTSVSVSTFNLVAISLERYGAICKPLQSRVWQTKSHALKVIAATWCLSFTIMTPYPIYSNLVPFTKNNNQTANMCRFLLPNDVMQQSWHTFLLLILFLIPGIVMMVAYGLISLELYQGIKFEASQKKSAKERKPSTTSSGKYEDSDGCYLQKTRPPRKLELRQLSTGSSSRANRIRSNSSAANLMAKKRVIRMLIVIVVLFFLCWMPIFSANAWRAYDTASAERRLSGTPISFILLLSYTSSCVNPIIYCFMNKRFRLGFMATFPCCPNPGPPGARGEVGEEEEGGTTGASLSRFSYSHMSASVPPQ

[23] = biological target: D(1A) dopamine receptor (Homo sapiens) (UniProt P21728); assay: Inhibition of radioligand binding at dopamine D1 receptor (unknown origin) at 10 uM
Chain of D(1A) dopamine receptor (Homo sapiens) (P21728 whole entry): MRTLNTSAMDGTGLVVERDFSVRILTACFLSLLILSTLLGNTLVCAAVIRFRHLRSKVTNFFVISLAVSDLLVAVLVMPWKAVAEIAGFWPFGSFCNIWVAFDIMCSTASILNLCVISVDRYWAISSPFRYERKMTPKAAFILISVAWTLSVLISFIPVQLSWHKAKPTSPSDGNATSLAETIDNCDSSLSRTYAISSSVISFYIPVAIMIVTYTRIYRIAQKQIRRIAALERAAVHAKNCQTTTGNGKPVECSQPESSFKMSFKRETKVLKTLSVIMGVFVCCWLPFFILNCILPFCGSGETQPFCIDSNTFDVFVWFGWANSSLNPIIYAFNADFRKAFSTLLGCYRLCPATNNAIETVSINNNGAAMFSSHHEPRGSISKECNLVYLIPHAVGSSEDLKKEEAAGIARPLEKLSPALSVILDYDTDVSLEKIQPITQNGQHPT

[24] = biological target: D(2) dopamine receptor (Homo sapiens) (UniProt P14416); assay: Inhibition of radioligand binding at dopamine D2 receptor (unknown origin) at 10 uM
Chain of D(2) dopamine receptor (Homo sapiens) (P14416 whole entry): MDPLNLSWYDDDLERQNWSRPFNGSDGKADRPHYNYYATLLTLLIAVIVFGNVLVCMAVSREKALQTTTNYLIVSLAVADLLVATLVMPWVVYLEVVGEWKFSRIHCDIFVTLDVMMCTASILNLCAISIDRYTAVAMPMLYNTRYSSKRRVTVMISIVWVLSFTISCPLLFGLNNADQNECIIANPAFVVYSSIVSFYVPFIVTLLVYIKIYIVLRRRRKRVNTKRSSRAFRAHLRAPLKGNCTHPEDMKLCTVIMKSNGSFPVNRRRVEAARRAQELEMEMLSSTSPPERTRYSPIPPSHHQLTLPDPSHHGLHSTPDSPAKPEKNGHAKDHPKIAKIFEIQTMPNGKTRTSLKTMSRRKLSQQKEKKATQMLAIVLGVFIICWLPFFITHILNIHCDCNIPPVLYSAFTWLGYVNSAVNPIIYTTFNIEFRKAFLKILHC

[25] = biological target: Melanocortin receptor 4 (Homo sapiens) (UniProt P32245); assay: Inhibition of radioligand binding at human melanocortin MC4 receptor at 10 uM
[26] = biological target: Motilin receptor (Homo sapiens) (UniProt O43193); assay: Inhibition of radioligand binding at human MTLR1 at 10 uM
[27] = biological target: Neuropeptide Y receptor type 1 (Homo sapiens) (UniProt P25929); assay: Inhibition of radioligand binding at human neuropeptide Y1 receptor at 10 uM
[28] = biological target: Sodium-dependent noradrenaline transporter (Homo sapiens) (UniProt P23975); assay: Inhibition of radioligand binding at human NET at 10 uM
Chain of Sodium-dependent noradrenaline transporter (Homo sapiens) (P23975 whole entry): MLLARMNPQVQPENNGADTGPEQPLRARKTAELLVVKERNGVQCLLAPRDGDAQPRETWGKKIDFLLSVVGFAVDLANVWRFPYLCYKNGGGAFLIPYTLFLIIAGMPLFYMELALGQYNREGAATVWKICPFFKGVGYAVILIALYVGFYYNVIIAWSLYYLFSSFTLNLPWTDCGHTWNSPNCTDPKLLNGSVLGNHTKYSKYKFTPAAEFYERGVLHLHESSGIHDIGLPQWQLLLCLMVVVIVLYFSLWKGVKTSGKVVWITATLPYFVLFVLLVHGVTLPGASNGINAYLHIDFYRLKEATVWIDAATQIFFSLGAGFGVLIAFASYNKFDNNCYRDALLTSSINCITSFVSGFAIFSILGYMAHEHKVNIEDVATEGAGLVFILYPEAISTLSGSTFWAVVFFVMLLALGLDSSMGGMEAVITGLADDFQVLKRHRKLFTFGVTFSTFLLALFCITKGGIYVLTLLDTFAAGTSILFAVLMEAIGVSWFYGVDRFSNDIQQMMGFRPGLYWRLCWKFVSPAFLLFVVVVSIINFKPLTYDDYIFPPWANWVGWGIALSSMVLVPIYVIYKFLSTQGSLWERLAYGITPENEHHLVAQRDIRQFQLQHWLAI

[29] = biological target: 5-hydroxytryptamine receptor 2C (Homo sapiens) (UniProt P28335); assay: Inhibition of radioligand binding at human 5HT2C receptor at 10 uM
Chain of 5-hydroxytryptamine receptor 2C (Homo sapiens) (P28335 whole entry): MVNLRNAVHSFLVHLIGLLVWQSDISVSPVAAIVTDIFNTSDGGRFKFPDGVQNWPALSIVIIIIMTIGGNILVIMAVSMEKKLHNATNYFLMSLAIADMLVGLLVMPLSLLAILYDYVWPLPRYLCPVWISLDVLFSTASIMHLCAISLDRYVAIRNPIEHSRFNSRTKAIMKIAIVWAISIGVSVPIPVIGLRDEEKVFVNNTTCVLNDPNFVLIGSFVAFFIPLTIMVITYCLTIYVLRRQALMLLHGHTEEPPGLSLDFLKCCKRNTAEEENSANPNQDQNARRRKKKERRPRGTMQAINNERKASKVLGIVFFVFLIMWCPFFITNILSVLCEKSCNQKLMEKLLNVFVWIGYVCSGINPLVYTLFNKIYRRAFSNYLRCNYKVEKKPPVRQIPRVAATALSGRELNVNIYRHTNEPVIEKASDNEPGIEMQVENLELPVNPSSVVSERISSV

[30] = biological target: Sodium-dependent serotonin transporter (Homo sapiens) (UniProt P31645); assay: Inhibition of radioligand binding at human SERT at 10 uM
Chain of Sodium-dependent serotonin transporter (Homo sapiens) (P31645 whole entry, looked up): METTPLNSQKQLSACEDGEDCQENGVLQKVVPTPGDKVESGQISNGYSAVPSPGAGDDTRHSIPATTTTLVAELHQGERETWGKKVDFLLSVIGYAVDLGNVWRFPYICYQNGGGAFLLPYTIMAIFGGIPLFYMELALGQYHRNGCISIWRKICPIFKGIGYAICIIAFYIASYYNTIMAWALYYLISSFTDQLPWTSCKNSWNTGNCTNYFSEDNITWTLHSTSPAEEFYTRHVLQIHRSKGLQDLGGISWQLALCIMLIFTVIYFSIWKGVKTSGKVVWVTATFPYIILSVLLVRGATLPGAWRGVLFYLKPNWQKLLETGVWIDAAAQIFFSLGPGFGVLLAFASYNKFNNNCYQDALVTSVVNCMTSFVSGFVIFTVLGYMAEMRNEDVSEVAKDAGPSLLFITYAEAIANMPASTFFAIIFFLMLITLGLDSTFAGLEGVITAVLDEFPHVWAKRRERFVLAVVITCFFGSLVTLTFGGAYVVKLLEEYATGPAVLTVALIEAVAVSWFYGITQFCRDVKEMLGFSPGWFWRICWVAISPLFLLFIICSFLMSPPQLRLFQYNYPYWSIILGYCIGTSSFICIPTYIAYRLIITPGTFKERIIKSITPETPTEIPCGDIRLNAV

[31] = biological target: T2, Growth hormone secretagogue receptor type 1; assay: Antagonist activity against ghrelin receptor (unknown origin) expressed in CHO cells assessed as inhibition of ghrelin-induced calcium response; type: functional, cell-based
[32] = Inhibition of ghrelin-induced growth hormone release in rat primary pituitary cells; type: functional, cell-based; details: Pituitary gland cell
[33] = Oral bioavailability in mouse at 10 mg/kg, administered as single dose; type: ADME, organism-based; details: in vivo
[34] = Bioavailability in mouse at 10 mg/kg, ip administered as single dose; type: ADME, organism-based; details: in vivo
[35] = Bioavailability in mouse at 10 mg/kg, sc administered as single dose; type: ADME, organism-based; details: in vivo
[36] = Total clearance in mouse at 10 mg/kg administered as single dose; type: ADME, organism-based; details: in vivo
[37] = Ratio of drug level in brain to plasma in mouse at 10 mg/kg, ip administered as single dose after 1 hr; type: ADME, organism-based; details: brain and plasma, read-out: BPR
[38] = Protein binding in human plasma; type: ADME, cell-free; details: read-out: PPB
Liver microsome = assay: Drug metabolism in human liver microsomes; type: ADME
hERG (KCNH2) = hERG (KCNH2) (Homo sapiens, UniProt Q12809); assay: Inhibition of human ERG at 10 uM
CYP3A4 = CYP3A4 (Homo sapiens, UniProt P08684); assay: Inhibition of CYP3A4 (unknown origin) at 10 uM; type: ADME
Chain of CYP3A4 (P08684 whole entry): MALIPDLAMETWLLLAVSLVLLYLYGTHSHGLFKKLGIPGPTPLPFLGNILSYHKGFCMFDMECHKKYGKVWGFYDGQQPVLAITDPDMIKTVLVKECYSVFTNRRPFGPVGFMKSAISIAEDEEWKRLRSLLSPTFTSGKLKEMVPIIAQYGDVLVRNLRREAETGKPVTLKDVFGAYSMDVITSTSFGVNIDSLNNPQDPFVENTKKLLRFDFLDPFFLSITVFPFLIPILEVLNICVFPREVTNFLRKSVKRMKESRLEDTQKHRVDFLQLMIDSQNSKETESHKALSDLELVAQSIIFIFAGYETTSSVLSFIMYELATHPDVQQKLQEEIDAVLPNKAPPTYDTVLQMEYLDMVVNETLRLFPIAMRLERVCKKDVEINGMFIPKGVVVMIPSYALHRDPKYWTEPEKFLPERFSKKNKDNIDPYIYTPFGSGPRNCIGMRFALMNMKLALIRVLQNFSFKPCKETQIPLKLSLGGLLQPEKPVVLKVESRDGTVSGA

Salmonella typhimurium = assay: Mutagenicity in Salmonella typhimurium by Ames test; type: toxicity, organism-based; details: salmonella enterica subsp. enterica serovar typhimurium
Rattus norvegicus [39] = assay: Inhibition of ghrelin-induced growth hormone release in rat at 3 mg/kg, iv pre-treated 5 mins before ghrelin challenge; type: functional, organism-based

O=C(NC[C@H]1COc2ccccc2O1)c1cc(N2C[C@H]3CC[C@@H](C2)O3)cnc1NCc1ccc2c(c1)OCO2
IC50 [1]: 560 nM | Activity [2]: inactive | IC50 [3]: 5.4 nM | Efficacy [4]: > 95%

CCCn1cc(-c2cnc(NCc3ccc4sccc4c3)c(C(=O)NCC3COc4ccccc4O3)c2)cn1 (racemic)
IC50 [1]: 400 nM | viability at 2 µM [5]: 101% | viability at 50 µM [6]: 92% | Activity [2]: inactive | IC50 [3]: 84 nM | Efficacy [4]: > 95%

CCCn1cc(-c2cnc(NCc3ccc4c(c3)OCO4)c(C(=O)NCC3COc4ccccc4O3)c2)cn1 (stereo not drawn)
IC50 [1]: 170 nM | viability at 2 µM [5]: 85% | viability at 50 µM [6]: 69% | Activity [2]: inactive | IC50 [3]: 36 nM | Efficacy [4]: > 95%

O=C(NC[C@H]1COc2ccccc2O1)c1cc(N2CCOCC2)cnc1NCc1ccc2c(c1)OCO2
IC50 [1]: 2000 nM | Activity [2]: inactive | IC50 [3]: 47 nM | Efficacy [4]: > 95%

C[C@@H]1CN(c2cnc(NCc3ccc4c(c3)OCC4)c(C(=O)NC[C@H]3COc4ccccc4O3)c2)C[C@H](C)O1
IC50 [1]: 350 nM | Activity [2]: inactive | IC50 [3]: 7.2 nM | Efficacy [4]: > 95%

CCCn1cc(-c2cnc(NCc3ccc4c(c3)OCC4)c(C(=O)NCC3COc4ccccc4O3)c2)cn1 (racemic)
IC50 [1]: 140 nM | Activity [2]: inactive | IC50 [3]: 11 nM | Efficacy [4]: > 95%

CC(C)N1[C@@H]2CC[C@H]1C=C(c1cnc(NCc3ccc4c(c3)OCC4)c(C(=O)NC[C@H]3COc4ccccc4O3)c1)C2 (mixture of isomers)
IC50 [1]: 4.1 nM | Activity [2]: inactive | IC50 [3]: 0.23 nM | Efficacy [4]: > 95% | Activity (HEK293 [7]): Toxic | Activity (HEK293 [8]): Toxic

H-RPKPFQWFWLL-NH2
IC50 [1]: 250 nM | IC50 [9]: 146 nM | IC50 [10]: 5.2 nM

CCn1cc(-c2cnc(NCc3ccc4c(c3)OCO4)c(C(=O)NC[C@H]3COc4ccccc4O3)c2)cn1
IC50 [1]: 110 nM | Activity [2]: inactive | IC50 [3]: 24 nM | Efficacy [4]: > 95%

CCn1cc(-c2cnc(NCc3ccc4c(c3)OCO4)c(C(=O)NC[C@@H]3COc4ccccc4O3)c2)cn1
IC50 [1]: 5500 nM | Activity [2]: inactive | IC50 [3]: 180 nM | Efficacy [4]: > 95%

CCCn1cc(-c2cnc(NCc3ccc4occc4c3)c(C(=O)NCC3COc4ccccc4O3)c2)cn1 (stereo not drawn)
IC50 [1]: 720 nM | Activity [2]: inactive | IC50 [3]: 150 nM | Efficacy [4]: > 95%

CC(=O)N1CC=C(c2cnc(NCc3ccc4c(c3)OCO4)c(C(=O)NC[C@H]3COc4ccccc4O3)c2)CC1
IC50 [1]: 2500 nM | Activity [2]: inactive | IC50 [3]: 42 nM | Efficacy [4]: > 95%

CCCn1cc(-c2cnc(NCc3ccc4ncsc4c3)c(C(=O)NCC3COc4ccccc4O3)c2)cn1 (stereo not drawn)
IC50 [1]: 900 nM | Activity [2]: inactive | IC50 [3]: 260 nM | Efficacy [4]: > 95%

CC(=O)N1[C@@H]2CC[C@H]1C=C(c1cnc(NCc3ccc4c(c3)OCC4)c(C(=O)NC[C@H]3COc4ccccc4O3)c1)C2 (mixture of isomers)
inhibition (Rattus norvegicus [11]): Active | inhibition (Rattus norvegicus [12]): Active | inhibition (Rattus norvegicus [13]): Active | inhibition (Mus musculus [14]): Active | inhibition (Mus musculus [15]): Active | Activity (Rattus norvegicus [16]): Non-toxic | Activity (Rattus norvegicus [17]): Non-toxic | Activity (Mus musculus [18]): Non-toxic | Activity (Mus musculus [19]): Non-toxic | inhibition [20]: 12.6% | inhibition [21]: 0% | inhibition [22]: 0% | inhibition [23]: 5.6% | inhibition [24]: 7.1% | inhibition [25]: 2.4% | inhibition [26]: 18.8% | inhibition [27]: 1% | inhibition [28]: 0% | inhibition [29]: 7.1% | inhibition [30]: 0% | IC50 [31]: 31 nM | IC50 [32]: 13 nM | bioavailability [33]: 0.64% | bioavailability [34]: 83.2% | bioavailability [35]: 99.1% | clearance [36]: 68.2 mL/min/kg | Kp at 1 h [37]: 0.005 | fraction unbound [38]: 0.01 | Drug metabolism (Liver microsome): 302 pmol/min/mg | inhibition at 10 µM (hERG (KCNH2)): 36% | inhibition at 10 µM (CYP3A4): 26% | Activity (Salmonella typhimurium): Non-toxic | inhibition (Rattus norvegicus [39]): Active | IC50 [1]: 47 nM | Activity [2]: inactive | IC50 [3]: 0.96 nM | Efficacy [4]: > 95%

O=C(NCC1COc2ccccc2O1)c1cc(-c2ccnc(Cl)c2)cnc1NCc1ccc2c(c1)OCC2 (racemic)
IC50 [1]: 390 nM | Activity [2]: inactive | IC50 [3]: 6.9 nM | Efficacy [4]: > 95%
